Among the data in patent US9227971B2, “Pyrazolo[1,5-a]pyrimidine compounds as mTOR inhibitors” (Merck Sharp & Dohme Corp., priority 2010, dated 2016) are IC50 values, retold here.

In experiment [1] the test system is phosphorylated AKT Ser473 (pAKT S473), mTORC2 activity, PC3 cells. The experiment can be described thus: mTOR target engagement assay, immunofluorescent cell-based, pAKT S473 readout (mTORC2 activity). A digest of the protocol: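 After blocking, cells were stained overnight at 4 °C with anti-pAKT S473 antibody, then a fluorescent secondary; inhibition was read as reduced fluorescence intensity.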

Experiment [2] has as its system phosphorylated 4E-BP1 Thr37/46 (p4E-BP1 Thr37/46), mTORC1 activity, PC3 cells. The experiment can be described thus: mTOR target engagement assay, immunofluorescent cell-based, p4E-BP1 Thr37/46 readout (mTORC1 activity). Conditions: read-out: p4E-BP1 Thr37/46 IC50. Summed up:
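Seed PC3 cells overnight; treat with compound dilutions for ninety minutes at 37° C; fix with glyoxal and block; stain with anti-p4E-BP1 Thr37/46 overnight at 4° C, then fluorescent secondary; read fluorescence and fit IC50 against DMSO-only controls.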

Where [3] appears, read: Homo sapiens, PC-3, PC3 cells, compound treatment ninety minutes at 37° C.
Where [4] appears, read: Homo sapiens, PC-3, Table 6-1, PC3 cells.
[5] abbreviates: Homo sapiens, PC-3, Table 3-1, PC3 cells.

Read-outs that look alike come from different tables or passages of the source.

As to `CC(=O)c1c([C@@H]2C[C@H]3CC[C@@H](C2)N3C(=O)CO)nc2c(-c3ccc(-c4ccc(F)cc4)nc3)cnn2c1N` [Compound 1.1.159, 1-((1R,3s,5S)-3-(6-acetyl-7-amino-3-(6-(4-fluorophenyl)pyridin-3-yl)pyrazolo[1,5-a]pyrimidin-5-yl)-8-azabicyclo[3.2.1]octan-8-yl)-2-hydroxyethanone], the IC50 in experiment [1] (setting [3]) and in experiment [2] (setting [3]) was 100 to 1000 nM in each case.
As to “((1R,3s,5S)-3-(7-amino-6-(methylsulfonyl)-3-(6-(5-methylthiazol-2-yl)pyridin-3-yl)pyrazolo[1,5-a]pyrimidin-5-yl)-8-azabicyclo[3.2.1]octan-8-yl)(5-methyl-4H-1,2,4-triazol-3-yl)methanone [Compound 3.183]”, the IC50 was in the range of 100 to 1000 nM in experiment [1] (Table 3-1, PC3 cells) and 100 to 1000 nM in experiment [2] (Table 3-1, PC3 cells).
With `CC(=O)c1c([C@@H]2C[C@H]3CC[C@@H](C2)N3C(=O)c2nnc[nH]2)nc2c(-c3cnc4c(c3)CCCC4O)cnn2c1N` (stereo partly drawn) [Compound 7.58, 1-(5-((1R,3s,5S)-8-(4H-1,2,4-triazole-3-carbonyl)-8-azabicyclo[3.2.1]octan-3-yl)-7-amino-3-(8-hydroxy-5,6,7,8-tetrahydroquinolin-3-yl)pyrazolo[1,5-a]pyrimidin-6-yl)ethanone], the IC50 is 1 to 100 nM in experiment [1] (PC3 cells) and 1 to 100 nM in experiment [2] (Homo sapiens, PC-3, PC3 cells).
For `CC(=O)c1c([C@@H]2C[C@H]3CC[C@@H](C2)N3C(=O)c2nnc[nH]2)nc2c(-c3ccc(-c4ncc[nH]4)nc3)cnn2c1N` [Compound 6.4, 1-(3-(6-(1H-imidazol-2-yl)pyridin-3-yl)-5-((1R,3s,5S)-8-(4H-1,2,4-triazole-3-carbonyl)-8-azabicyclo[3.2.1]octan-3-yl)-7-aminopyrazolo[1,5-a]pyrimidin-6-yl)ethanone], the IC50 in experiment [1] (setting [4]) and in experiment [2] (setting [4]) was 1 to 100 nM in each case.
As to `CC(=O)c1c([C@@H]2C[C@H]3CC[C@@H](C2)N3C(=O)[C@H](C)O)nc2c(-c3ccc(-c4ccccc4)nc3)cnn2c1N` [Compound 1.1.8, (S)-1-((1R,3R,5S)-3-(6-acetyl-7-amino-3-(6-phenylpyridin-3-yl)pyrazolo[1,5-a]pyrimidin-5-yl)-8-azabicyclo[3.2.1]octan-8-yl)-2-hydroxypropan-1-one], the IC50 in experiment [1] (setting [3]) lay within 1 to 100 nM; in experiment [2] (setting [3]) it was 100 to 1000 nM.
Regarding `CS(=O)(=O)c1c([C@@H]2C[C@H]3CC[C@@H](C2)N3C(=O)c2nc[nH]n2)nc2c(-c3ccc(-c4ccccc4)nc3)cnn2c1N` [Compound 3.2, ((1R,3s,5S)-3-(7-amino-6-(methylsulfonyl)-3-(6-phenylpyridin-3-yl)pyrazolo[1,5-a]pyrimidin-5-yl)-8-azabicyclo[3.2.1]octan-8-yl)(1H-1,2,4-triazol-3-yl)methanone], the IC50 in experiment [1] (setting [5]) and in experiment [2] (setting [5]) was 1 to 100 nM each time.
`COc1ccc(-c2ccc(-c3cnn4c(N)c(S(C)(=O)=O)c([C@@H]5C[C@H]6CC[C@@H](C5)N6C(=O)c5nnc[nH]5)nc34)cn2)cc1C` [Compound 3.50, ((1R,3s,5S)-3-(7-amino-3-(6-(4-methoxy-3-methylphenyl)pyridin-3-yl)-6-(methylsulfonyl)pyrazolo[1,5-a]pyrimidin-5-yl)-8-azabicyclo[3.2.1]octan-8-yl)(4H-1,2,4-triazol-3-yl)methanone]: the IC50 in experiment [1] (setting [5]) and in experiment [2] (setting [5]) was 1 to 100 nM throughout.
In the case of `CC(=O)c1c([C@@H]2C[C@H]3CC[C@@H](C2)N3C(=O)c2nnc[nH]2)nc2c(-c3cnc(C(C)O)s3)cnn2c1N` (stereo partly drawn) [Compound 7.36, 1-(5-((1R,3s,5S)-8-(4H-1,2,4-triazole-3-carbonyl)-8-azabicyclo[3.2.1]octan-3-yl)-7-amino-3-(2-(1-hydroxyethyl)thiazol-5-yl)pyrazolo[1,5-a]pyrimidin-6-yl)ethanone], the IC50 in experiment [1] (setting [3]) and in experiment [2] (setting [3]) was 1000 to 10000 nM each time.
